Source: ChEMBL document CHEMBL4680298, “2-Aryl-3-(6-trifluoromethoxy)benzo[d]thiazole-based thiazolidinone hybrids as potential anti-infective agents: Synthesis, biological evaluation and molecular docking studies” (2021)
Converted amounts (≈) assume the structure as drawn.

Assays:
Pseudomonas aeruginosa [1] = experiment: Anti-infective activity against Pseudomonas aeruginosa ATCC 27853 assessed as reduction in bacterial growth by microdilution method; format: functional
Listeria monocytogenes = experiment: Anti-infective activity against Listeria monocytogenes NCTC 7973 assessed as reduction in bacterial growth by microdilution method; format: functional
Pseudomonas aeruginosa [2] = experiment: Anti-infective activity against Pseudomonas aeruginosa PAO1 assessed as reduction in bacterial growth by microdilution method; format: functional
Escherichia coli [3] = experiment: Anti-infective activity against Escherichia coli ATCC 35210 assessed as reduction in bacterial growth by microdilution method; format: functional
Escherichia coli [4] = experiment: Anti-infective activity against resistant Escherichia coli assessed as reduction in bacterial growth by microdilution method; format: functional
Salmonella typhimurium = experiment: Anti-infective activity against Salmonella typhimurium ATCC 13311 assessed as reduction in bacterial growth by microdilution method; format: functional, Salmonella enterica subsp. enterica serovar Typhimurium; details: Salmonella enterica
Staphylococcus aureus [5] = experiment: Anti-infective activity against methicillin resistance Staphylococcus aureus assessed as reduction in bacterial growth by microdilution method; format: functional
Staphylococcus aureus [6] = experiment: Anti-infective activity against Staphylococcus aureus ATCC 6538 assessed as reduction in bacterial growth by microdilution method; format: functional

Compound | MBC (Pseudomonas aeruginosa [1]) [µg/mL] | MIC (Pseudomonas aeruginosa [1]) [µg/mL] | MBC (Listeria monocytogenes) [µg/mL] | MIC (Listeria monocytogenes) [µg/mL] | MBC (Pseudomonas aeruginosa [2]) [µg/mL] | MIC (Pseudomonas aeruginosa [2]) [µg/mL] | MBC (Escherichia coli [3]) [µg/mL] | MIC (Escherichia coli [3]) [µg/mL] | MBC (Escherichia coli [4]) [µg/mL] | MIC (Escherichia coli [4]) [µg/mL] | MBC (Salmonella typhimurium) [µg/mL] | MIC (Salmonella typhimurium) [µg/mL] | MBC (Staphylococcus aureus [5]) [µg/mL] | MIC (Staphylococcus aureus [5]) [µg/mL] | MBC (Staphylococcus aureus [6]) [µg/mL] | MIC (Staphylococcus aureus [6]) [µg/mL]
COc1ccc(C2SCC(=O)N2c2nc3ccc(OC(F)(F)F)cc3s2)cc1 (racemic) | 500 (≈ 1170 µM) | 250 (≈ 586 µM) | 500 (≈ 1170 µM) | 250 (≈ 586 µM) | 250 (≈ 586 µM) | 120 (≈ 281 µM) | 500 (≈ 1170 µM) | 250 (≈ 586 µM) | 500 (≈ 1170 µM) | 250 (≈ 586 µM) | 500 (≈ 1170 µM) | 250 (≈ 586 µM) | 1000 (≈ 2340 µM) | 500 (≈ 1170 µM) | 500 (≈ 1170 µM) | 250 (≈ 586 µM)
CN[C@@H]1[C@H](O[C@H]2[C@H](O[C@H]3[C@H](O)[C@@H](O)[C@H](N=C(N)N)[C@@H](O)[C@@H]3N=C(N)N)O[C@@H](C)[C@]2(O)C=O)O[C@@H](CO)[C@H](O)[C@H]1O [STREPTOMYCIN] | 200 (≈ 344 µM) | 100 (≈ 172 µM) | 300 (≈ 516 µM) | 150 (≈ 258 µM) | 100 (≈ 172 µM) | 50 (≈ 86 µM) | 200 (≈ 344 µM) | 100 (≈ 172 µM) | 200 (≈ 344 µM) | 100 (≈ 172 µM) | 200 (≈ 344 µM) | 100 (≈ 172 µM) | – | 100 (≈ 172 µM) | 300 (≈ 516 µM) | 150 (≈ 258 µM)
CC1(C)S[C@@H]2[C@H](NC(=O)[C@H](N)c3ccccc3)C(=O)N2[C@H]1C(=O)O [AMPICILLIN] | 150 (≈ 429 µM) | 100 (≈ 286 µM) | 300 (≈ 859 µM) | 150 (≈ 429 µM) | – | 200 (≈ 572 µM) | 200 (≈ 572 µM) | 150 (≈ 429 µM) | – | 200 (≈ 572 µM) | 200 (≈ 572 µM) | 150 (≈ 429 µM) | – | – | 300 (≈ 859 µM) | 150 (≈ 429 µM)
O=C1CSC(c2ccc(F)cc2)N1c1nc2ccc(OC(F)(F)F)cc2s1 (racemic) | 500 (≈ 1210 µM) | 250 (≈ 603 µM) | 500 (≈ 1210 µM) | 250 (≈ 603 µM) | 500 (≈ 1210 µM) | 250 (≈ 603 µM) | 250 (≈ 603 µM) | 150 (≈ 362 µM) | 500 (≈ 1210 µM) | 250 (≈ 603 µM) | 250 (≈ 603 µM) | 150 (≈ 362 µM) | 500 (≈ 1210 µM) | 250 (≈ 603 µM) | 500 (≈ 1210 µM) | 250 (≈ 603 µM)
O=C1CSC(c2c(F)cccc2Cl)N1c1nc2ccc(OC(F)(F)F)cc2s1 (racemic) | 1000 (≈ 2230 µM) | 500 (≈ 1110 µM) | 500 (≈ 1110 µM) | 250 (≈ 557 µM) | 250 (≈ 557 µM) | 120 (≈ 267 µM) | 500 (≈ 1110 µM) | 250 (≈ 557 µM) | 500 (≈ 1110 µM) | 250 (≈ 557 µM) | 500 (≈ 1110 µM) | 250 (≈ 557 µM) | 1000 (≈ 2230 µM) | 500 (≈ 1110 µM) | 500 (≈ 1110 µM) | 250 (≈ 557 µM)
O=C1CSC(c2ccc(O)cc2)N1c1nc2ccc(OC(F)(F)F)cc2s1 (racemic) | 250 (≈ 606 µM) | 120 (≈ 291 µM) | 750 (≈ 1820 µM) | 500 (≈ 1210 µM) | 500 (≈ 1210 µM) | 300 (≈ 727 µM) | 250 (≈ 606 µM) | 150 (≈ 364 µM) | 500 (≈ 1210 µM) | 250 (≈ 606 µM) | 250 (≈ 606 µM) | 150 (≈ 364 µM) | 500 (≈ 1210 µM) | 250 (≈ 606 µM) | 750 (≈ 1820 µM) | 500 (≈ 1210 µM)
